Laboratory results: patent publication US12161719B2, “Method of enhancing the antimicrobial action of systemically administered antibiotics” (Koite Health Oy, priority 2019, dated 2024)

Assays:
Format in all cases: cell-based
[1] = system: Streptococcus mutans biofilms; assay: 1 day biofilm test with Azithromycine, Indocyanine Green and light; details: 15 μg with Indocyanine Green
Experimental: A further series of tests was carried out for Streptococcus mutans biofilms using Azithromycine (15 μg) and Indocyanine Green using light at 100 J/cm^2. For 1 day biofilms, the CFU was on an average <1 after treatment with dual light of 405 nm and 810 nm, respectively (at ratios of 3:1 to 1:3), whereas for either 405 nm or 810 nm wavelength light alone, the CFU was on an average below 100 after 1 day. For Azithromycine and Indocyanine Green without light, the CFU was about 1E06 to 1E07 after 1 day.

[2] = Antibiotic susceptibility test (doxycycline disc on petri dishes, with or without light)
From the text: Antibiotic Susceptibility Test Each test was repeated 3 times with identical treatment and growth parameters. The calculated CFU:s for 100 J/cm^2 treated doxycycline disc results are shown in table 1 and representing image of difference between treated and non-treated doxy petri dish are shown in FIG. 1. […] Starting from the left is the doxycycline inhibition effect in dark, in the middle the resulting petri dish with 405 nm and 810 nm exposure and on the right side the petri dish with 405 nm excitation is shown.

[3] = system: planktonic Streptococcus mutans; assay: Planktonic bacteria test, light activation of doxycycline
From the text: FIG. 2 is a bar chart showing bacteria growth of Streptococcus mutans for four different treatments, illustrating the effect of light activation of doxycycline against planktonic Streptococcus mutans; FIG. 2 is a bar chart showing light activation of doxycycline at 405 nm in a planktonic bacteria test. […] 100 J of antibacterial blue light had minor reduction in CFU compared to non-exposed control.

[4] = system: Streptococcus mutans 4 day biofilm; assay: 4-day biofilm effectivity test, colony formation (CFU)
From the text: FIG. 3 is a bar chart showing a comparison of the doxycycline effect with light excitations of 405 nm, dual-light (810 nm & 405 nm) and 370 nm to Streptococcus mutans colony formation in 4 day biofilm model; FIG. 4 is a bar chart showing the doxycycline effect against Streptococcus mutans 4 day biofilm for light excitation using a combination of light of 405 nm and 810 nm (“dual-light”) together with an ICG sensitizer, compared with light of 810 nm together with an ICG sensitizer (“doxy+aPDT”) and with 405 nm light without ICG sensitizer (“405”). A control of doxycycline is given as a reference; and […] is a bar chart showing a comparison of doxycycline effect with light excitations of […] on Streptococcus mutans colony formation in a 4-day biofilm effectivity test. FIG. 4 gives the CFU:s for Streptococcus mutans colonies on petri dishes after 4-day treatments, repeated 6 times with identical treatment and growth parameters, for four series of tests. The first (non-existent) bar represents the CFU:s for S. mutans colonies doxycycline which had been treated with doxycycline (30 μg) and dual light of 405 nm and 810 nm together with Indocyanine Green. The energy intensity of the light was 100 J/cm^2. […]

CC[C@H]1OC(=O)[C@H](C)[C@@H](O[C@H]2C[C@@](C)(OC)[C@@H](O)[C@H](C)O2)[C@H](C)[C@@H](O[C@@H]2O[C@H](C)C[C@H](N(C)C)[C@H]2O)[C@](C)(O)C[C@@H](C)CN(C)[C@H](C)[C@@H](O)[C@]1(C)O [Azithromycine]
CFU on an average ([1]; 405 nm light alone, 100 J/cm^2, 1 day): below 100
CFU on an average ([1]; 810 nm light alone, 100 J/cm^2, 1 day): below 100
CFU on an average ([1]; dual light 405 nm and 810 nm (ratios 3:1 to 1:3), 100 J/cm^2, 1 day biofilms): < 1

C[C@H]1c2cccc(O)c2C(=O)C2=C(O)[C@]3(O)C(=O)C(C(N)=O)=C(O)[C@@H](N(C)C)[C@@H]3[C@@H](O)[C@@H]21 [doxycycline]
Regression diameter ([2]; 44 J/cm^2 405 nm + 60 J/cm^2 810 nm): 29,66666667
Regression diameter ([2]; 83 J/cm^2 405 nm): 30,33333
Regression diameter ([2]; no light, disc test, repeated 3 times): 26,33333
bacteria growth ([3]; doxycycline without light): ≥ 10^7 CFU
bactericidal effect, bacteria killing ([3]; light activated at 405 nm): over 3 log
improvement of antibacterial light effect with the addition of doxycycline ([4]; 370 nm light): over 1.5 log
improvement of antibacterial light effect with the addition of doxycycline ([4]; 405 nm light): over 1.5 log
